Test results reported in patent publication US9783490B2, “Antimicrobial compounds, their synthesis and applications thereof” (The Secretary of State for Health, priority 2012, dated 2017).
Read-outs that look alike come from different tables or passages of the source.

Legend:
[1] = system: Enterococcus faecium (ATCC 19634); experiment: Minimum Inhibitory Concentration, micro-dilution broth; type: cell-based; details: for Minimum Inhibitory Concentration E. faecium: Drug sensitive bacteria
Experimental: (§1) Microorganisms and Culture Conditions: Bacterial strains, S. aureus (MTCC 737) and E. coli (MTCC 443) are purchased from MTCC (Chandigarh, India). MRSA (ATCC 33591), Pseudomonas aeruginosa (ATCC 4676), […]-lactamase producing and drug-resistant Klebsiella pneumonia (ATCC700603), Enterococcus faecium (ATCC 19634) and vancomycin resistant Enterococcus faecium (ATCC 51559) are obtained from ATCC (Rockville, Md., USA).
(§2) E. coli is cultured in Luria Bertani broth (10 g of tryptone, 5 g of yeast extract, and 10 g of NaCl in 1000 mL of sterile distilled water (pH −7) while S. aureus, Pseudomonas aeruginosa (ATCC 4676) and MRSA are grown in Yeast-dextrose broth (1 g of beef extract, 2 g of yeast extract, 5 g of peptone and 5 g of NaCl in 1000 mL of sterile distilled water). For all Enterococcus faecium, Brain Heart Infusion broth (BHI) is used. For solid media 5% agar was used along with above mentioned composition. K. pneumonia was grown in nutrient media (3 g of beef extract and 5 g of peptone in 1000 mL of sterile distilled water). The bacterial samples were freeze dried and stored at −80° C. 5 μl of these stocks were added to 3 mL of the nutrient broth and the culture was grown for 6 h at 37° C. prior to the experiments.
(§3) Antibacterial activity is reported as Minimum Inhibitory Concentration (MIC), i.e. the lowest concentration of the antimicrobial agent that will inhibit the growth of a microorganism after overnight incubation. Water-soluble ACK, NCK and BCK series of compounds are assayed in a modified micro-dilution broth format. Stock solutions are made by serially diluting the compounds using autoclaved Millipore water. Bacteria, to be tested are grown for about 6 hrs in the suitable media containing ˜10^9 cfu/mL (determined through dilution plate technique by spread plate method), which is then diluted to 10^5 cfu/mL using nutrient media. 50 μL of serially diluted compound is added to a 96 well plate containing 150 μL bacterial solutions. Two controls are made; one containing 150 μL of media and 50 μL of compound and the other containing 200 μL of bacterial solution. […] MIC value is determined by taking the average of triplicate O.D. values for each concentration and plotting it against concentration using Origin Pro 8.0 software. The data is then subjected to sigmoidal fitting. From the curve, MIC value is determined, as the point in the curve where the O.D. is similar to that of control having no bacteria. The MIC values and errors of independent experiments are reported as average and standard deviation of triplicates.

[2] = system: drug-resistant Klebsiella pneumonia (ATCC700603); experiment: as above; type: cell-based; details: for Minimum Inhibitory Concentration K. pneumonia: Drug resistant bacteria
Experimental: as §1, §2, §3

[3] = system: vancomycin resistant Enterococcus faecium (ATCC 51559); experiment: as above; type: cell-based; details: for Minimum Inhibitory Concentration VRE: Drug resistant bacteria
Experimental: as §1, §2, §3

[4] = system: Pseudomonas aeruginosa (ATCC 4676); experiment: as above; type: cell-based; details: for Minimum Inhibitory Concentration P. aeruginosa: Drug sensitive bacteria
Experimental: as §1, §2, §3

[5] = system: bacteria; experiment: Minimum inhibitory concentration, bacterium not given; type: cell-based
Experimental: as §3

[6] = system: human RBCs; experiment: Haemolytic activity (HC50); type: cell-based
Experimental: Erythrocytes are isolated from freshly drawn, heparinized human blood and re-suspended to 5 vol % in PBS (pH 7.4). In a 96-well microtiter plate, 150 μl of erythrocyte suspension is added to 50 μl of serially diluted compound. Two controls are made, one without compound and other with 50 μl of 1 vol % solution of Triton X-100. The plate is incubated for about 1 hr at a temperature of about 37° C. The plate is then centrifuged at 3,500 rpm for about 5 min, 100 μl of the supernatant from each well is transferred to a fresh microtiter plate, and absorbance at 540 nm is measured. Percentage of hemolysis is determined as (A−A0)/(Atotal−A0)×100, where A is the absorbance of the test well, A0 the absorbance of the negative controls (without compound), and A total the absorbance of 100% hemolysis wells (with Triton X-100), when absorbance is read at 540 nm.
Toxicity studies of the compounds are carried out on freshly drawn human RBCs. Toxicity of the antimicrobial compounds of the present disclosure is defined by their HC50 values illustrated in Table 3, i.e. the concentration of compound at which 50% of the blood cells are lysed. Haemolytic studies conducted herein illustrates that the antimicrobial compounds provided by the instant disclosure are selective towards drug sensitive bacteria and drug resistant bacteria over human RBCs, thus establishing the non-toxicity of the present compounds.

[7] = system: MRSA (ATCC 33591); experiment: Minimum Inhibitory Concentration, micro-dilution broth; type: cell-based, Methicillin resistant S. aureus; details: for Minimum Inhibitory Concentration MRSA: Drug resistant bacteria
Experimental: as §1, §2, §3

[8] = system: E. coli (MTCC 443); experiment: as above; type: cell-based, Escherichia coli; details: for Minimum Inhibitory Concentration E. coli: Drug sensitive bacteria
Experimental: as §1, §2, §3

[9] = system: S. aureus (MTCC 737); experiment: as above; type: cell-based, Staphylococcus aureus; details: for Minimum Inhibitory Concentration S. aureus: Drug sensitive bacteria
Experimental: as §1, §2, §3

[10] = concentration at which 50% of the blood cells are lysed, human RBCs

Compound | MIC value against E. faecium [1] | Minimum Inhibitory Concentration E. faecium [1] [µg/mL] | Minimum Inhibitory Concentration K. pneumonia [2] [µg/mL] | Minimum Inhibitory Concentration VRE [3] [µg/mL] | Minimum Inhibitory Concentration P. aeruginosa [4] [µg/mL] | active concentration against all bacteria [5] | HC50 [6] [µg/mL] | HC50 values [6] [µg/mL] | MIC value against methicillin-resistant S. aureus [7] | Minimum Inhibitory Concentration MRSA [7] [µg/mL] | Minimum Inhibitory Concentration E. coli [8] [µg/mL] | Minimum Inhibitory Concentration S. aureus [9] [µg/mL] | HC50 [6, 10] [µg/mL] | MIC value against K. pneumonia [2] | MIC value against vancomycin-resistant E. faecium [3] | MIC value against P. aeruginosa [4] | MIC value against E. coli [8] | MIC value against S. aureus [9]
Lys-N-octylaminodecane [Dec-CK-8] | 3 µg/mL | 3 | 5.6 | 3.3 | 4.2 | below 5.6 μg/ml | 82 | 82 | 3 µg/mL | 3 | 3.1 | 3.1 |  |  |  |  |  | 
CCCCCCCCN(Cc1ccccc1)C(=O)C(N)CCCCN.O=C(O)C(F)(F)F (centres unmarked) [BCK-8, Lys-N-octyl-1-Aminomethylbenzene trifluoroacetates] |  | 60 | >100 | >100 | 60 |  |  |  |  | >100 | 51 | 46 | 325 |  |  |  |  | 
CCCCN(Cc1cccc2ccccc12)C(=O)C(N)CCCCN.O=C(O)C(F)(F)F (centres unmarked) [NCK-4, Lys-N-butyl-1-Aminomethylnaphthalene trifluoroacetate] |  | >100 | >100 | >100 | >100 |  |  |  |  | >100 | >100 | >100 | >1000 |  |  |  |  | 
CCCCCCCCCCCCN(Cc1ccccc1)C(=O)C(N)CCCCN.O=C(O)C(F)(F)F (centres unmarked) [BCK-12, Lys-N-dodecyl-1-Aminomethylbenzene trifluoroacetates] | ~2.6 µg/mL | 2.6 | 2.8 | 3.3 | 4 |  |  |  | ~2.9 µg/mL | 2.9 | 5 | 2.7 | 45 | ~2.8 µg/mL | ~3.3 µg/mL | about 4 μg/ml | ~5 µg/mL | ~2.7 µg/mL
CCCCCCCCN(Cc1cccc2ccccc12)C(=O)C(N)CCCCN.O=C(O)C(F)(F)F (centres unmarked) [NCK-8, Lys-N-octyl-1-Aminomethylnaphthalene trifluoroacetate] | about 5.5 μg/ml | 5.5 | 13 | 7 | 5.4 |  |  |  | about 4.4 μg/ml | 4.4 | 5 | 6.3 | 60 | about 13 μg/ml | about 7 μg/ml | ~5.4 µg/mL | about 5 μg/ml | about 6.3 μg/ml
CCCCCCCCCCCCN(Cc1cccc2ccccc12)C(=O)[C@@H](N)CCCCN.O=C(O)C(F)(F)F [NCK-12, Lys-N-dodecyl-1-Aminomethylnaphthalene trifluoroacetate] | ~1.6 µg/mL | 1.6 | 4 | 3.4 | 3.2 |  |  |  | ~2.7 µg/mL | 2.7 | 3.1 | 3 | 56 | ~4 µg/mL | ~3.4 µg/mL | ~3.2 µg/mL | ~3.1 µg/mL | ~3 µg/mL
CCCCCCCCCCN(Cc1c2ccccc2c(Cl)c2ccccc12)C(=O)[C@@H](N)CCCCN.O=C(O)C(F)(F)F [ACK-10, Lys-N-decyl-10-Aminomethyl-9-chloroanthracene trifluoroacetate] | ~4.9 µg/mL | 4.9 | 7.6 | 5.6 | 11 |  |  |  | ~4.6 µg/mL | 4.6 | 26 | 7.1 | 71 | ~7.6 µg/mL | ~5.6 µg/mL |  |  | ~7.1 µg/mL
CCCCCCCCCCN(Cc1cccc2ccccc12)C(=O)[C@@H](N)CCCCN.O=C(O)C(F)(F)F [NCK-10, Lys-N-decyl-1-Aminomethylnaphthalene trifluoroacetate] | ~3.5 µg/mL | 3.5 | 5.8 | 1.6 | 3 |  |  |  | ~2.6 µg/mL | 2.6 | 4 | 2.5 | 54 | ~5.8 µg/mL | ~1.6 µg/mL | ~3 µg/mL | ~4 µg/mL | ~2.5 µg/mL
CCCCCCCCN(Cc1c2ccccc2c(Cl)c2ccccc12)C(=O)[C@@H](N)CCCCN.O=C(O)C(F)(F)F [ACK-8, Lys-N-octyl-10-Aminomethyl-9-chloroanthracene trifluoroacetate] | ~2.5 µg/mL | 2.5 | 4.3 | 3 | 3.8 |  |  |  | ~2.3 µg/mL | 2.3 | 2.9 | 2.2 | 64 | ~4.3 µg/mL | ~3 µg/mL | ~3.8 µg/mL | ~2.9 µg/mL | ~2.2 µg/mL
